Target: Cdc7/Dbf4 (Homo sapiens, UniProt O00311)
Experiment: Cdc7 Biochemical Assay Method 3: Cdc7/Dbf4 Enzyme TR-FRET Assay measuring pS40MCM2
Conditions: 1 μM ATP, read-out: Biochemical Method 3 (pIC50) (converted)
Method: This protocol describes a method for assaying a compounds' ability to inhibit Cdc7 activity by measuring pS40MCM2 levels in a Cdc7/Dbf4 Enzyme TR-FRET Assay.
2.5 nM Cdc7/Dbf4 was incubated with 100 nM of biotin-labelled peptide 35-TDALTS(pS)PGRDLP in the presence of 1 μM ATP at 25° C. for 120 minutes. The phosphorylation of the peptide was detected using TR-FRET. Anti-Mcm2 (pS40) antibody, Terbium anti-rabbit secondary antibody and Streptavidin-Alexa Fluor488 form the detection system.

Chain of Cdc7/Dbf4 (O00311 whole entry): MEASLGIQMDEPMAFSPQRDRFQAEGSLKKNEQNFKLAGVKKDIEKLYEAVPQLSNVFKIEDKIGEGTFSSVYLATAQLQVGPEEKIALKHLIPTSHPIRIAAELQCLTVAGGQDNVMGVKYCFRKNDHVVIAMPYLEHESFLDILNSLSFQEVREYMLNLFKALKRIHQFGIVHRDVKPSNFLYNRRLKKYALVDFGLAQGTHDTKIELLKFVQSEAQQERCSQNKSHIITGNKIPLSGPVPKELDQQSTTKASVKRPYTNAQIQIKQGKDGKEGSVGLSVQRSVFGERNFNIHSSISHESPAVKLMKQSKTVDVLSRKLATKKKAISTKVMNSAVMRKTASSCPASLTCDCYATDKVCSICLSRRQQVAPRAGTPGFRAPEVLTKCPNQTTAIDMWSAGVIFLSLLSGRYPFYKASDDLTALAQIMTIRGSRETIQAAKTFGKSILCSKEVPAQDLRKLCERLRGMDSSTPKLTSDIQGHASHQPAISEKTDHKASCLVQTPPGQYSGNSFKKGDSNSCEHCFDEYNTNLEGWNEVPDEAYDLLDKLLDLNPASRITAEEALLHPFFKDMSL
Chain of Cdc7/Dbf4 (Q9UBU7 whole entry partner): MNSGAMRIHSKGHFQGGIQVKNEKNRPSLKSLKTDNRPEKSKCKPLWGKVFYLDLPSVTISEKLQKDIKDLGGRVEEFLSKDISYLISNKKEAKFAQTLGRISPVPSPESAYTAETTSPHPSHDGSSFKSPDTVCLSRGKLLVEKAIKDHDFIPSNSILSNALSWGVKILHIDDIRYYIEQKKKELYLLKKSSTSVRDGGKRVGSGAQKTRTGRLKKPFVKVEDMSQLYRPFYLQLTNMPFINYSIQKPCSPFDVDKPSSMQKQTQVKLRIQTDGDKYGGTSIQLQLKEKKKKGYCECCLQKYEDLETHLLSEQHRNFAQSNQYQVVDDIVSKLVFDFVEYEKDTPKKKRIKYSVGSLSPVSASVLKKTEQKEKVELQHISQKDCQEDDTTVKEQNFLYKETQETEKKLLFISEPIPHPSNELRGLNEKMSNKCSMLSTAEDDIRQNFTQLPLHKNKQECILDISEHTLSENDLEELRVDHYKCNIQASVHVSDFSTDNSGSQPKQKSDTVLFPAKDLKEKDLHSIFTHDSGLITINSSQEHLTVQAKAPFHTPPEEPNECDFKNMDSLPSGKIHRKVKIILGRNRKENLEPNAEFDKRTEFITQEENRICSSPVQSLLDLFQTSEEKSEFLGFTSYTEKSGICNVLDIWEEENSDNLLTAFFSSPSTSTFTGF

IC50 [nM] | Structure (SMILES)
8.51 | CN(c1nc(-c2ccnc(F)c2)[nH]c(=O)c1Cl)C1CCOCC1 [Compound 229]
6.61 | O=c1[nH]c(-c2ccnc(F)c2)nc(N2CCC3(CCNCC3)C2)c1Cl [Compound 230]
2.88 | CNC(=O)C1CCN(c2nc(-c3ccnc(F)c3)[nH]c(=O)c2Cl)CC1 [Compound 231]
2.19 | O=C1NC(=O)C2(CCN(c3nc(-c4ccnc(F)c4)[nH]c(=O)c3Cl)CC2)N1 [Compound 233]
14.5 | O=c1[nH]c(-c2ccnc(F)c2)nc(N2CCC3(CC2)OCCO3)c1Cl [Compound 236]
7.94 | O=c1[nH]c(-c2ccnc(F)c2)nc(N2C[C@H]3NCCO[C@@H]3C2)c1Cl [Compound 237]
5.25 | O=c1[nH]c(-c2ccnc(F)c2)nc(N2CCC3(CCCO3)CC2)c1Cl [Compound 238]
1.1 | NC(=O)N1CCN(c2nc(-c3ccnc(F)c3)[nH]c(=O)c2Cl)CC1 [Compound 239]
3.72 | CN(C)C(=O)N1CCN(c2nc(-c3ccnc(F)c3)[nH]c(=O)c2Cl)CC1 [Compound 240]
2.19 | O=c1[nH]c(-c2ccnc(F)c2)nc(N2CCC3(CCCN3)CC2)c1Cl [Compound 241]
1.15 | O=c1[nH]c(-c2ccnc(F)c2)nc(N2CCC3(CCNC3)CC2)c1Cl [Compound 242]
1000 | O=c1[nH]c(-c2ccnc(F)c2)nc(N2CCCC2CN2CCOCC2)c1Cl (stereo not drawn) [Compound 246]
4.57 | NC(=O)[C@H]1CCCN1c1nc(-c2ccnc(F)c2)[nH]c(=O)c1Cl [Compound 247]
42.7 | NC(=O)[C@@H]1CCCN1c1nc(-c2ccnc(F)c2)[nH]c(=O)c1Cl [Compound 248]
9.33 | NC(=O)[C@@H]1CCN(c2nc(-c3ccnc(F)c3)[nH]c(=O)c2Cl)C1 [Compound 249]
9.77 | O=c1[nH]c(-c2ccnc(F)c2)nc(N2CCCC3(CCCN3)C2)c1Cl (stereo not drawn) [Compound 250]
4.07 | NC(=O)[C@H]1CCN(c2nc(-c3ccnc(F)c3)[nH]c(=O)c2Cl)C1 [Compound 251]
7.41 | CNC(=O)C1CCCN(c2nc(-c3ccnc(F)c3)[nH]c(=O)c2Cl)C1 (stereo not drawn) [Compound 253]
2.4 | CC(C)C(=O)NC1CCN(c2nc(-c3ccnc(F)c3)[nH]c(=O)c2Cl)CC1 [Compound 254]

Second part, the molecule before the results:

Structure (SMILES) | IC50 [nM]
CC(C)(O)[C@H]1CN(c2nc(-c3ccnc(F)c3)[nH]c(=O)c2Cl)CCN1 [Compound 187] | 1.86
O=c1[nH]c(-c2ccnc(F)c2)nc(N2C[C@H](O)C[C@H](O)C2)c1Cl [Compound 189] | 1.62
O=c1[nH]c(-c2ccnc(F)c2)nc(SC2CCOCC2)c1Cl [Compound 191] | 3.72
O=c1[nH]c(-c2ccnc(F)c2)nc(SC2CCNCC2)c1Cl [Compound 193] | 2.88
O=c1[nH]c(-c2ccnc(F)c2)nc(OC2CNC2)c1Cl [Compound 194] | 14.5
N[C@H]1CC[C@@H](Oc2nc(-c3ccnc(F)c3)[nH]c(=O)c2Cl)C1 [Compound 195] | 1.32
O=c1[nH]c(-c2ccnc(F)c2)nc(N2CC3(CNC3)C2)c1Cl [Compound 198] | 66.1
O=c1[nH]c(-c2ccnc(F)c2)nc(OC2COC2)c1Cl [Compound 199] | 389
O=c1[nH]c(-c2ccnc(F)c2)nc(O[C@H]2CCOC2)c1Cl [Compound 200] | 8.13
O=c1[nH]c(-c2ccnc(F)c2)nc(N2CCOC(CN3CCCCC3)C2)c1Cl (stereo not drawn) [Compound 202] | 10
O=c1[nH]c(-c2ccnc(F)c2)nc(N2CCCC(F)(F)CC2)c1Cl [Compound 204] | 4.07
O=c1[nH]c(-c2ccnc(F)c2)nc(N2CCOCC(O)C2)c1Cl (stereo not drawn) [Compound 207] | 1.29
O=c1[nH]c(-c2ccnc(F)c2)nc(N2CCC[C@H](Nc3ccccc3)C2)c1Cl [Compound 209] | 85.1
CN(c1nc(-c2ccnc(F)c2)[nH]c(=O)c1Cl)C1CCNCC1(C)C (stereo not drawn) [Compound 210] | 4.37
CC1(C)CNCCC1Nc1nc(-c2ccnc(F)c2)[nH]c(=O)c1Cl (stereo not drawn) [Compound 211] | 17.4
O=c1[nH]c(-c2ccnc(F)c2)nc(N2CCC(CN3CCOCC3)C2)c1Cl (stereo not drawn) [Compound 212] | 79.4

Structure (SMILES) | IC50 [nM]
O=c1[nH]c(-c2ccnc(F)c2)nc(N2CCC3(CCCCN3)C2)c1Cl (stereo not drawn) [Compound 213] | 53.7
O=c1[nH]c(-c2ccnc(F)c2)nc(N2CC[C@@H](O)C2)c1Cl [Compound 214] | 14.8
O=c1[nH]c(-c2ccnc(F)c2)nc(N2CC[C@H](O)C2)c1Cl [Compound 215] | 14.1
O=c1[nH]c(-c2ccnc(F)c2)nc(N2CCOC3CNCC32)c1Cl (stereo not drawn) [Compound 216] | 1.7
O=c1[nH]c(-c2ccnc(F)c2)nc(N2CCC3(CCCN3)C2)c1Cl (stereo not drawn) [Compound 217] | 45.7
O=c1[nH]c(-c2ccnc(F)c2)nc(N2CCC3(CCNC3)C2)c1Cl (stereo not drawn) [Compound 218] | 8.13
NC[C@H]1CCN(c2nc(-c3ccnc(F)c3)[nH]c(=O)c2Cl)C1 [Compound 219] | 6.76
O=c1[nH]c(-c2ccnc(F)c2)nc(N2CCC3(CCCNC3)C2)c1Cl (stereo not drawn) [Compound 220] | 15.5
O=c1[nH]c(-c2ccnc(F)c2)nc(NC2CCNCC2)c1Cl [Compound 222] | 13.5
O=c1[nH]c(-c2ccnc(F)c2)nc(NCC2COCCN2)c1Cl (stereo not drawn) [Compound 224] | 724
O=c1[nH]c(-c2ccnc(F)c2)nc(N2CCC3CNCCC32)c1Cl (stereo not drawn) [Compound 225] | 2.09
O=c1[nH]c(-c2ccnc(F)c2)nc(N2CC3CNCC3C2)c1Cl (stereo not drawn) [Compound 226] | 3.02
O=c1[nH]c(-c2ccnc(F)c2)nc(N2CCOC3(CCNCC3)C2)c1Cl [Compound 227] | 2.24
O=c1[nH]c(-c2ccnc(F)c2)nc(N2CCC(C3CCOCC3)C2)c1Cl (stereo not drawn) [Compound 228] | 53.7
O=c1[nH]c(-c2ccnc(F)c2)nc(N2CCC3(CNC3)C2)c1Cl [Compound 245] | 2.04

Target: Cdc7/ASK (Homo sapiens, UniProt O00311)
Experiment: Cdc7 Biochemical Assay Method 1: 384 well ELISA, whole protein substrate MCM2, antibody against Phospho MCM2 (S53)
Set-up: purchased
Conditions: 2 μM ATP, read-out: Biochemical Method 1 (pIC50) (converted)
Method: This protocol describes a method for assaying Cdc7/ASK for activity. The assay is a 384 well ELISA assay, utilising a whole protein substrate (MCM2) and an antibody against Phospho MCM2 (S53). This site is thought to be specific to Cdc7/ASK phosphorylation and the assay has been validated using knockout mutants. Reagents • TBS: 25 mM Tris pH 7.2, 150 mM NaCl. (Dilute 10× stock by 1:10). • Wash Buffer: TBS+0.05% Tween 20. (Add 100 mL 1 M Tris pH 7.2, 120 mL 5 M NaCl and 2 mL 100% Tween 20 per 4 L). • Kinase Reaction Buffer: 50 mM Tris-HCl pH 8.5, 10 mM MgCl2, 1 mM DTT. (Dilute 10× stock by 1:10 and add 100 μL 1M DTT per 100 mL prior to assay). • Diethanolamine Buffer: 1 M diethanolamine pH 9.8, 0.5 mM MgCl2. • Stop Solution: 1 M NaOH. • MCM2 was expressed and purified in-house and used in the assay at a final assay concentration of 436 ng/well. • Cdc7/ASK is purchased from commercial suppliers and used in the assay at a final assay concentration of 37.97 ng/well or 20.63 nM. • ATP used as a final assay concentration of 2 μM. • Primary Antibody: Rabbit anti-Phospho MCM2 (S53 Antibody (BL3353)), is purchased from commercial suppliers at 0.2 mg/mL and used at a final assay concentration by diluting 1:800 in TBS. • Secondary Antibody: Anti-Rabbit/AP Antibody is supplied is purchased from commercial suppliers at 1 mg/mL and used at a final assay concentration by diluting 1:2000 in TBS. • Development Reagent: Dissolve one 20 mg PNPP tablet (Sigma, product […], 20 mg per tablet) per 20 mL diethanolamine Buffer (or one 5 mg PNPP tablet per 5 mL diethanolamine buffer). Cover in foil and leave shaking on a roller shaker at room temperature for up to an hour to dissolve. Methods • 1. Add 20 μL 1× working stock of Substrate (MCM2) in TBS to all wells of a clear, 384 well, Nickel-chelate microplate to give a final concentration of […]. Incubate at room temperature for at least 1 hour. Plates can be pre-coated for 1 hour and stored at 4° C. for up to 8 days. • 2. Wash with TBS+0.05% Tween 20 (80 μL×3). • 3. Add 2 μL 10× test compounds, including the positive control, in 40% DMSO/water to 'test' wells. Add 2 μL 40% DMSO/water to 'control' and 'blank' wells. The final DMSO concentration will be 4%. • 4. Add 13 μL CDC7/ASK Kinase (1.5× stock) in Kinase Reaction Buffer to 'test' and 'control' wells to give a final concentration of […]. Add 13 μL Kinase Reaction Buffer to 'blank' wells. • 5. Add 5 μL ATP (4× stock) in Kinase Reaction Buffer to all wells to give a final concentration of 2 μM. • 6. Incubate at room temperature for 90 minutes. • 7. Wash with TBS+0.05% Tween 20 (80 μL×3). • 8. Add 20 μL 1× working solution of Primary Antibody in TBS to all wells. Incubate at room temperature for 30 minutes. • 9. Wash with TBS+0.05% Tween 20 (80 μL×3). • 10. Add 20 μL 1× working solution of Secondary Antibody in TBS to all wells. Incubate at room temperature for 30 minutes. • 11. Wash with TBS+0.05% Tween 20 (80 μL×3). • 12. Add 20 μL 1× Development Reagent to all wells. • 13. Incubate at room temperature for 2 hours. Stop the reaction by adding 20 μL Stop Solution to all wells and record Absorbance on a Pherastar plate reader. Percentage inhibition values were calculated from absorbance values, using the no compound (DMSO) and no enzyme control values as 0% and 100% inhibition, respectively. IC50 determination was performed with ExcelFit software (IDBS) using curve fit 205. Z' factors were determined for each plate tested and were all above 0.5. Method 2

Chain of Cdc7/ASK (O00311 whole entry): as the sequence (O00311 whole entry) above
Chain of Cdc7/ASK (Q9UBU7 whole entry partner): as the sequence (Q9UBU7 whole entry partner) above

IC50 [nM] | Structure (SMILES)
166 | O=c1[nH]c(-c2ccncc2)nc(C2=CCOCC2)c1Cl [Compound 404, 5-chloro-4-(3,6-dihydro-2H-pyran-4-yl)-2-(4-pyridyl)-1H-pyrimidin-6-one]
562 | CC(C)(C)OC(=O)N1CC=C(c2nc(-c3ccncc3)[nH]c(=O)c2Cl)CC1 [Compound 405, tert-butyl 4-[5-chloro-6-oxo-2-(4-pyridyl)-1H-pyrimidin-4-yl]-3,6-dihydro-2H-pyridine-1-carboxylate]
851 | O=c1[nH]c(-c2ccncc2)nc(C2CCOCC2)c1C(F)(F)F [Compound 406, 2-(4-pyridyl)-4-tetrahydropyran-4-yl-5-(trifluoromethyl)-1H-pyrimidin-6-one]
60.3 | CC(C)(O)[C@@H]1CN(c2nc(-c3ccncc3)[nH]c(=O)c2Cl)CCN1 [Compound 407, 5-chloro-4-[(3S)-3-(1-hydroxy-1-methyl-ethyl)piperazin-1-yl]-2-(4-pyridyl)-1H-pyrimidin-6-one]
